Measurements as given in patent US5004756A, “Anti-cancer activity potentiator” (priority 1988, dated 1991).
Values after ≈ are worked out from the molar mass of the structure shown. Like-named read-outs stand apart in the source and are kept apart here.

What was measured:
V79/S [1] = experiment: Colony formation (proliferation) inhibition, sensitive Chinese hamster cells (A-I Part 1); type: cell-based; details: Cricetulus griseus, 216 h
Protocol: (§1) Sensitive cell line V79/S and ADM-resistant cell line V79/ADM of the Chinese hamster were used, and sensitive cell line PLC/S and cholchicin-resistant cell line PLC/Col, as human hepatoma cells.
(§2) The sensitive cell lines (400 cells) or the resistant cell lines (600 cells) were each incubated for 24 hours in 10 ml of Eagle's MEM medium containing 10% bovine serum. Each of the drugs indicated in Table 1 below was dissolved in ethanol, and 50 microliters of the resulting solution was added to the medium. The incubation was further carried out for 9 days. The concentration of the drug which inhibits 50% of the colony formation (proliferation) of the tumor cells was calculated.
(§3) V79/S and V79/ADM were tested by using all of the drugs described above, but PLC/S and PLC/Col were tested by using only the malate of formula (I), adriamycin and peplomycin.
(§4) The concentrations (micrograms/ml) required to inhibit 50% of the proliferation of the tumor cells, expressed by IC50, are shown in Table 1.

V79/ADM [2] = experiment: Colony formation (proliferation) inhibition, ADM-resistant Chinese hamster cells (A-I Part 1); type: cell-based; details: Cricetulus griseus, 216 h
Protocol: as §1, §2, §3, §4

[3] = system: clinically isolated human cancer cells (lung adenocarcinoma, lung squamous cell carcinoma, osteosarcoma, ovarian carcinoma); experiment: Anti-tumor activity on clinically isolated human cancer cells, morphological changes (A-I Part 2); type: cell-based
V79/S [4] = experiment: Anti-cancer activity potentiating action, colony formation, V79/S parent cells (A-III); type: cell-based, Chinese hamster; details: for IC50: Cricetulus griseus
Protocol: (§5) The anti-cancer activity potentiating action of the malate of formula (I) was examined using Chinese hamster cells (sensitive cell line V79/S and ADM-resistant cell line V79/ADM), human hepatoma cells (sensitive cell line PLC/S and colchicin-resistant cell line PLC/Col) and mouse leukemia cells (sensitive cell line L5178Y/S) and aclarubicin-resistant cell line L5178Y/ACR).
(§6) Of these tumor cells, the sensitive cells (400 cells) and the resistant cells (600 cells) were each incubated in 10 ml of Eagle's MEM medium containing 10% bovine serum for 24 hours, and then each of the test drugs indicated in Table 6 was added. Thereafter, the incubation was carried out for 9 days. The concentration (IC50 : micrograms/ml) of the test drug required to inhibit 50% of the colony formation (proliferation) of the tumor cells was calculated.
(§7) (A) Chinese hamster V79 cells
(§8) As anti-cancer agents, there were used adriamycin (ADM), aclarubicin (ACR), actinomycin D (ACD), 5-fluorouracil (5-FU), cytarabin (Ara-C), cisplatin (CDDP), methotrexate (MTX), mitomycin C (MMC), nimustine (ACNU), mitoxantrone, etoposide ([…]), vincristine (VCR), bleomycin (BLM) and peplomycin (PEP). For the sensitive cells, the anti-cancer agents were used in combination with 10 micrograms/ml of the malate of formula (I), and for the resistant cells, the anti-cancer agents were used in combination with the malate of formula (I) 3 micrograms/ml, 5 micrograms/ml, and 10 micrograms/ ml.

V79/ADM [5] = experiment: Anti-cancer activity potentiating action, colony formation, V79/ADM resistant cells (A-III); type: cell-based, Chinese hamster; details: for IC50: Cricetulus griseus
Protocol: as §5, §6, §7, §8

L5178Y/S = experiment: Anti-cancer activity potentiating action, colony formation, mouse leukemia sensitive cells (table head prints PLC/S); type: cell-based; details: head prints PLC/S (parent cells); for IC50: Mus musculus, L5178Y
Protocol: as §5, §6
(§9) Adriamycin (ADM) and aclarubicin (ACR) as anti-cancer agents were used in combination with 20 micrograms/ml of the malate of formula (I).

L5178Y/ACR = experiment: Anti-cancer activity potentiating action, colony formation, aclarubicin-resistant mouse leukemia cells (table head prints PLC/ACR); type: cell-based; details: for IC50: Mus musculus, L5178Y
Protocol: as §5, §6, §9

PLC/S [6] = experiment: Colony formation (proliferation) inhibition, sensitive human hepatoma cells (A-I Part 1); type: cell-based; details: Homo sapiens, 216 h
Protocol: as §1, §2, §3, §4

PLC/Col [7] = experiment: Colony formation (proliferation) inhibition, colchicin-resistant human hepatoma cells (A-I Part 1); type: cell-based; details: Homo sapiens, 216 h
Protocol: as §1, §2, §3, §4

Lewis lung cancer cells = experiment: Life prolongation of BDF1 mice with Lewis lung cancer (A-II Part 2); type: in vivo, mouse (male BDF1)
Protocol: Male BDF1 mice having a body weight of 20±2 g (6 per group) were used, and as tumor cells, Lewis lung cancer cells were transplanted under the skin of the side abdomen of each of the mice at a rate of 10^5 cells. […] The life prolongation rate of the mice in each group was determined by the treated group/non-treated control group (T/C %).

PLC/S [8] = experiment: Anti-cancer activity potentiating action, colony formation, PLC/S parent cells (A-III); type: cell-based, human; details: for IC50: Homo sapiens
Protocol: as §5, §6
(§10) As anti-cancer agents, adriamycin (ADM) and peplomycin (PEP) were used in combination with the malate of formula (I) (5 micrograms/ml).

PLC/Col [9] = experiment: Anti-cancer activity potentiating action, colony formation, PLC/Col resistant cells (A-III); type: cell-based, human; details: for IC50: Homo sapiens
Protocol: as §5, §6, §10

[10] = system: Human stomach cancer cell line H-81; experiment: Anti-cancer activity potentiating action in nude mice with human stomach cancer H-81 (A-V); type: in vivo, human tumor in ICR nude mice
Description: ICR nude mice (4-5 weeks old; 7 per group) were used. Human stomach cancer cell line H-81 was used as tumor cells. Tissue pieces, 2 mm in square, were taken, and transplanted subcutaneously to the right back portion of the nude mice. […] The sequence of the drug administration was as follows: […] The administration was further repeated every five days from the day on which the administration was first carried out. The total number of administrations of each drug was four. […] The measurement was made on the days on which the drugs were administered, and four weeks after the start of drug administration.

[11] = system: human tumor cells (muscle fibrosarcoma HT-1080); experiment: Anti-cancer activity potentiating action in nude mice with HT-1080 (A-VI); type: in vivo, human tumor in ICR nude mice; details: ADM 4 mg/kg i.v., days 5, 10, 15, 20; day 36
Protocol: ICR nude mice, 6 per group, were used, and the experiment was conducted substantially in accordance with the procedure described in A-V.
As tumor cells, human tumor cells (muscle fibrosarcoma HT-1080) were used, and 5 days after the transplantation, drug administration was started.
The administration was further performed every 5 days from the day of starting the administration, and the total number of administrations was therefore 4.
Mitomycin C (MMC) was tested by the same way as above.
Thirty-six days after the transplantation of the tumor, a tumor mass was extracted and its weight was measured. From the difference of the weight of the tumor from the non-treated control group, the tumor growth inhibition ratio (%) was calculated.

[12] = read-out: IC50, anti-cancer agent alone
[13] = read-out: IC50 in combination with compound (I)
[14] = V79/S, with compound (I) 10 μg/ml
[15] = V79/ADM, with compound (I) 10 μg/ml
[16] = alone, Table 7 lower part, read-out: IC50, anti-cancer agent alone
[17] = with compound (I) 20 μg/ml, read-out: IC50 in combination with compound (I)

## CC[C@@]1(O)C[C@H](O[C@H]2C[C@H](N(C)C)[C@H](O[C@H]3C[C@H](O)[C@H](O[C@H]4CCC(=O)[C@H](C)O4)[C@H](C)O3)[C@H](C)O2)c2c(cc3c(c2O)C(=O)c2c(O)cccc2C3=O)[C@H]1C(=O)OC [ACR, aclarubicin]
V79/S [1]
  IC50: 0.037 µg/mL (≈ 0.0456 µM)
V79/ADM [2]
  IC50: 0.27 µg/mL (≈ 0.333 µM)
[3]; 0.2 μg/ml
  Efficacy ratio (rated significant by Fisher's test): 2/8
V79/S [4]; [12]
  IC50: 0.037 µg/mL
V79/S [4]; [13]
  IC50: 0.027 µg/mL
V79/S [4]; [14]
  Potentiation activity: 1.37 times
V79/ADM [5]; [12]
  IC50: 0.27 µg/mL
V79/ADM [5]; [13]
  IC50: 0.024 µg/mL
V79/ADM [5]; [15]
  Potentiation activity: 11.3 times
L5178Y/S; [16]
  IC50: 0.019 µg/mL
L5178Y/S; [17]
  IC50: 0.017 µg/mL
L5178Y/S; with compound (I) 20 μg/ml
  Potentiation activity: 1.0 times
L5178Y/ACR; [16]
  IC50: 0.07 µg/mL
L5178Y/ACR; [17]
  IC50: 0.043 µg/mL
L5178Y/ACR; with compound (I) 20 μg/ml
  Potentiation activity: 1.8 times

## COc1cccc2c1C(=O)c1c(O)c3c(c(O)c1C2=O)C[C@@](O)(C(=O)CO)C[C@@H]3O[C@H]1C[C@H](N)[C@H](O)[C@H](C)O1 [ADM, adriamycin]
V79/S [1]
  IC50: 0.057 µg/mL (≈ 0.105 µM)
V79/ADM [2]
  IC50: 8.8 µg/mL (≈ 16.2 µM)
PLC/S [6]
  IC50: 0.005 µg/mL (≈ 0.0092 µM)
PLC/Col [7]
  IC50: 0.08 µg/mL (≈ 0.147 µM)
[3]; 0.3 μg/ml
  Efficacy ratio (rated significant by Fisher's test): 3/8
Lewis lung cancer cells; 1.25 mg/kg i.v.
  T/C (life prolongation rate): 218%
Lewis lung cancer cells; 2.5 mg/kg i.v. (lipid emulsion calculated as malate)
  T/C (life prolongation rate): 173%
Lewis lung cancer cells; 5.0 mg/kg i.v. (lipid emulsion calculated as malate)
  T/C (life prolongation rate): 241%
V79/S [4]; V79/S, alone, Table 6, read-out: IC50, anti-cancer agent alone
  IC50: 0.057 µg/mL
V79/S [4]; V79/S, with compound (I) 10 μg/ml, read-out: IC50 in combination with compound (I)
  IC50: 0.008 µg/mL
V79/S [4]; [14]
  Potentiation activity: 7.1 times
V79/ADM [5]; V79/ADM, alone, Table 6, read-out: IC50, anti-cancer agent alone
  IC50: 8.8 µg/mL
V79/ADM [5]; V79/ADM, with compound (I) 10 μg/ml, read-out: IC50 in combination with compound (I)
  IC50: 0.25 µg/mL
V79/ADM [5]; [15]
  Potentiation activity: 35.2 times
PLC/S [8]; [12]
  IC50: 0.005 µg/mL
PLC/S [8]; [13]
  IC50: 0.0053 µg/mL
PLC/S [8]; PLC/S, with compound (I) 5 μg/ml
  Potentiation activity: 1.0 times
PLC/Col [9]; [12]
  IC50: 0.08 µg/mL
PLC/Col [9]; [13]
  IC50: 0.027 µg/mL
PLC/Col [9]; PLC/Col, with compound (I) 5 μg/ml
  Potentiation activity: 3.0 times
L5178Y/S; [16]
  IC50: 0.048 µg/mL
L5178Y/S; [17]
  IC50: 0.016 µg/mL
L5178Y/S; with compound (I) 20 μg/ml
  Potentiation activity: 3.0 times
L5178Y/ACR; [16]
  IC50: 0.06 µg/mL
L5178Y/ACR; [17]
  IC50: 0.18 µg/mL
L5178Y/ACR; with compound (I) 20 μg/ml
  Potentiation activity: 3.7 times
[10]; 2 mg/kg i.v., 4 weeks later, **p < 0.1 vs control
  Tumor growth inhibition rate: 45.2%
[10]; 2 mg/kg i.v., 5 days later
  Tumor growth inhibition rate: 16.5%
[10]; 2 mg/kg i.v., 10 days later
  Tumor growth inhibition rate: 45.7%
[10]; 2 mg/kg i.v., 15 days later
  Tumor growth inhibition rate: 49.5%
[10]; ADM 5 mg/kg i.v. singly, 4 weeks later, *p < 0.5 vs control
  Tumor growth inhibition rate: 59.7%
[11]
  Tumor growth inhibition ratio: 96.1%
  Tumor weight: 0.14 ± 0.32
